From patent US20260250246A1, “PSILOCYBIN ANALOGS, SALTS, COMPOSITIONS, AND METHODS OF USE” (priority 2021, published 2026) come the findings set out here.

The nature of data set [1]: Maturation in 12 different solvents with thermal cycling (XRPD). It is filed as physicochemical. Conditions: thermal cycling room temperature/50° C., 3 days. As to the method:
The resulting slurries were subjected to maturation with thermal cycling between room temperature and 50° C. (4 hours at each condition) for 3 days. Solids were then analysed by XRPD.

Data set [2] can be described thus: Stability studies in acid solutions (PI salt solutions). In kind it is physicochemical. Particulars: 40° C. An excerpt: Ascorbic acid (AsA), acetic acid (AcA), tartaric acid (TA), fumaric acid (FA), citric acid (CA), malic acid (MA), benzenesulfonic acid (BSA), stearic acid (SA), sodium citrate dihydrate, monosodium phosphate hydrate, disodium phosphate were purchased from Sigma Aldrich. Aluminum (III) chloride (AlCl3) and iron (III) chloride (FeCl3) were purchased from Sigma Aldrich. Antioxidants, i.e., ethylenediaminetetraacetic acid (EDTA), ascorbic acid (AsA), L-cysteine (Cys), sodium metabisulfite (NamBiSO3) and propyl gallate (PG) were purchased from Sigma Aldrich. Hydroxypropyl-β-cyclodextrin (CAVASOL® W7 HP, CAVITRON® W7 HP7) and methyl-β-cyclodextrin (CAVASOL® W7 M) were provided by DuPont.
The following chromatographic conditions were used:
Diluent. The diluent used in the below studies was prepared as follows: 100 mL of acetonitrile (ACN) was mixed with 800 mL of water and 100 mL of 1.0 M citric acid and mixed well to prepare 1 L of diluent.
The stability of psilocin in 0.1 M solutions of various acids was tested.
Test solutions: To prepare the test solutions, 0.1 M solutions of AsA, AcA, TA, FA, CA, MA, BSA, and SA were prepared in DI water.

Data set [3] can be described thus: Stability studies in sodium citrate buffer. In kind it is physicochemical. As to the method:
(§1) Preparation of 0.1 M sodium citrate buffer (pH 6.01): 2.427 g of sodium citrate dihydrate and 0.336 g of citric acid were dissolved in 80 ml of DI water. The pH was adjusted to 6.0 using a 1 M NaOH solution. The final volume was adjusted to 100 ml.

Data set [4] in a line: Long term stability studies with citric acid and sodium citrate buffer. In kind it is physicochemical. As to the method: The long-term stability (up to 25 days) of psilocin in a citric acid solution (0.1 M, pH 1.60) and a sodium citrate buffer (0.1 M, pH 6.01) at 4° C. and 23° C. was assessed.
as §1
Test solutions: Psilocin (1 mg/ml) was mixed with (i) sodium citrate buffer (0.1 M, pH 6.01) and (ii) citric acid solution (0.1 M, pH 1.60) in 1:1 v/v. The samples were stored at 4° C. and 23° C., and aliquots were sampled at designated timepoints (days 0, 7, 17, and 25).

Data set [5] in a line: Stability studies with antioxidants. Particulars: EDTA, ascorbic acid, L-cysteine, sodium metabisulfite, propyl gallate; 40° C.
Data set [6] in a line: Stability studies in citric acid solution.
Data set [7] can be described thus: Stability studies with cyclodextrin complexes. Particulars: 40° C., with or without metal salts.
A short description of data set [8]: Psilocin-d0/psilocin-d10 and psilocybin PK comparative study in rats (oral gavage, intravenous bolus; plasma and brain). Particulars: for oral bioavailability: co-dosing of PI-d0 and PI-d10.
A short description of data set [9]: Stability of amorphous form from melt/crash cooling on standing. In kind it is physicochemical. Conditions: amorphous free base.
The nature of data set [10]: Anti-solvent precipitation: DMF or DMSO solution added to water. In kind it is physicochemical. As to the method:
The following techniques were tried but were not successful in the preparation of amorphous material: • i) Crash cooling freeze drying. […] Instead, solutions were formed which became dark within 4 hours, signifying degradation

Data set [11] in a line: Psilocin-d10 pharmacokinetics study in dogs following oral gavage and intravenous (bolus) administrations.
A short description of data set [12]: Pharmacokinetics of psilocin-d10 and psilocybin in male beagle dog, powder in capsule (PIC) or orally disintegrating tablet (ODT).
The nature of data set [13]: Observation of freeze dried salt. In kind it is physicochemical. Particulars: freeze dried from 1,4-dioxane.
The mark [14] stands for this setting: female dog plasma, single intravenous (bolus) 0.20 mg/kg, Mean, N=3.
Where [15] appears, read: female dog plasma, single intravenous (bolus) 0.20 mg/kg, Median, N=3.
Where [16] appears, read: female dog plasma, single intravenous (bolus) 0.20 mg/kg, individual animals 60F, 61F, 723F, listed as Psilocin-d10, 0.2 mg/kg.
[17] abbreviates: female dog plasma, single oral (gavage) 1.00 mg/kg, Median, N=3.
Setting [18] is: female dog plasma, single oral (gavage) 1.00 mg/kg, individual animals 60F, 61F, 723F, listed as Psilocin-d10, 1 mg/kg.
[19] abbreviates: ODT, psilocin-d10 dosed 5 mg (nominal 0.5 mg/kg), analyte psilocin-d10, male beagle dog plasma, Mean.
[20] abbreviates: PIC, psilocin-d10 dosed 5 mg (nominal 0.5 mg/kg), analyte psilocin-d10, male beagle dog plasma, Mean.

Each structure is given as a SMILES string. Values joined by “and” are separate entries in the source; they are usually repeats but may differ in a detail not shown here. Equal entries are not always repeated. Structures can show the parent of a compound that is named as a salt.

For the compound `CN(C)CCc1c[nH]c2cccc(O)c12` [Compound I-7j, Benzoate Salt of 3-(2-(dimethylamino)ethyl)-1H-indol-4-ol], in [1], the “crystalline form by XRPD after maturation in 12 solvents” value (shortened to “crystalline form by XRPD”) is “retained their initial crystalline form”.

In the case of `[2H]C([2H])([2H])N(C([2H])([2H])[2H])C([2H])([2H])C([2H])([2H])c1c[nH]c2cccc(O)c12` [Compound I-3j, Benzoate Salt of 3-(2-(bis(methyl-d3)amino)ethyl-1,1,2,2-d4)-1H-indol-4-ol], in data set [1], the “crystalline form by XRPD” value is “retained their initial crystalline form”.

For `CN(C)CCc1c[nH]c2cccc(O)c12` [Compound I-7a, Benzenesulfonate Salt of 3-(2-(dimethylamino)ethyl)-1H-indol-4-ol], the “crystalline form by XRPD” value in data set [1] is listed as “retained their initial crystalline form”.

`CN(C)CCc1c[nH]c2cccc(O)c12` [Compound I-7, 3-(2-(dimethylamino)ethyl)-1H-indol-4-ol]: the “solution stability (% psilocin remaining)” value in data set [2] (0.1 M acid solutions, with or without metal salts, up to 24) is “excellent stability”; in [2] (without acid, within 24 hours), “nearly all psilocin being degraded”; in [2] (without acid, with Fe3+ and Al3+ metal ions), “significant psilocin degradation”; in data set [3] (0.1 M sodium citrate buffer, 4° C. and room temperature) it was “greatly stabilized”; in data set [3] (non-citrate buffered, with Fe3+ and Al3+ metal ions), “significant psilocin degradation”; in [3] (without sodium citrate buffer, 4, 23, 40° C., by 18 hour time point), “nearly all psilocin being degraded”. The “solution stability (% psilocin remaining)” value is listed as “greatly enhanced the stability” in [6] (small quantities of citric acid, pH 3.2, 4° C. and 23° C.); “nearly all psilocin being degraded” in data set [6] (without citric acid, 4, 23 and 40° C., by 18 hour time point); “significant psilocin degradation” in data set [6] (without citric acid, with Fe3+ and Al3+ metal ions). Also, the degradation of psilocin in [3] (0.1 M sodium citrate buffer, 40° C.) is 10-15%. In addition, in data set [3] (in 0.1 M citrate buffer), the “effect of metal salts (Fe3+ and Al3+) on psilocin” value is listed as “no detrimental effects”. Besides, the long-term solution stability entry is listed as “only minimal degradation” in data set [4] (citric acid 0.1 M, pH 1.60, 23° C. and 4° C., 25 days); “degradation of psilocin began within a week” in data set [4] (sodium citrate buffer pH 6.01, room temperature). In addition, the “time psilocin remained stable” value in data set [4] (sodium citrate buffer pH 6.01, cold storage 4° C.) is on record as “up to 17 days”. The “stability against metal salts with antioxidants” value in data set [5] is recorded as “none of the antioxidants tested were able to provide stability”. In addition, in data set [6] (small quantities of citric acid, 40° C., 24 hour), the “psilocin stabilization at 24 hour time point” value was 30%. Also, in data set [7], the stability with cyclodextrins result is reported as “did not impart stability”. The oral bioavailability in data set [8] (rats) is on record as 7.52%.

Turning to `[2H]C([2H])([2H])N(C([2H])([2H])[2H])C([2H])([2H])C([2H])([2H])c1c[nH]c2cccc(O)c12` [Compound I-3, 3-(2-(bis(methyl-d3)amino)ethyl-1,1,2,2-d4)-1H-indol-4-ol], the “stability of amorphous form” value in [9] was “not stable for prolonged periods”. The “time until solutions became dark, signifying degradation” value in data set [10] is no more than 4 h. In addition, in data set [11] (dogs, oral administration), the “time of last detectable plasma level” value stood at 9 h. In addition, in data set [11] (setting [14]), the Cmax (in general, the peak of the concentration-time curve) was 45.8 ng/mL and the t1/2 is given as 1.37 h. Besides, in [11] (setting [15]), the AUC0-inf turned out to be 95.8 ng·h/mL, the AUC0-t was 80.7 ng·h/mL, the CL was 34.83 mL/min/kg and the Cmax amounted to 45.9 ng/mL. Further, in [11] (setting [15]), the “DN Cmax” value is 230 (ng/mL)/(mg/kg) and the Vss was found to be 3.96 L/kg. For the same compound, in data set [11] (setting [16]), the AUC0-inf came out at 95.8 ng·h/mL; the AUC0-t worked out at 80.7 ng·h/mL; the CL amounted to 34.83 mL/min/kg; the Cmax is 45.9 ng/mL and 43.9 ng/mL. In addition, in data set [11] (setting [16]), the “DN AUC0-inf” value is listed as 500 (h*ng/mL)/(mg/kg); the “DN Cmax” value is 230 (ng/mL)/(mg/kg) and 220 (ng/mL)/(mg/kg); the Vss turned out to be 3.96 L/kg. In data set [11] (setting [17]), this compound returned an AUC0-inf of 414 ng·h/mL, an AUC0-t of 399 ng·h/mL and a t1/2 of 1.80 h. Moreover, in data set [11] (setting [18]), the AUC0-inf is 426 ng·h/mL and 414 ng·h/mL; the AUC0-t is 404 ng·h/mL and 399 ng·h/mL; the Cmax is reported as 126 ng/mL; the t1/2 was 1.80 h and 1.82 h and 1.69 h. Moreover, the oral bioavailability in data set [8] (rats) is on record as 12.1%. In data set [12] (setting [19]), this compound yielded an AUCINF_obs of 213 ng·h/mL, an AUClast of 199 ng·h/mL, a Cl_F_obs of 40.33 mL/min/kg and a Cmax of 67.2 ng/mL. In [12] (setting [19]), the Tmax (in general, the time at which the peak concentration occurs) was 0.542 h and the Vz_F_obs was 6.9 L/kg. Further, in data set [12] (setting [20]), the AUClast was 181 ng·h/mL, the Cl_F_obs was determined as 43.5 mL/min/kg, the Cmax is on record as 60 ng/mL and the T½ stood at 2.01 h. In data set [12] (setting [20]), the Vz_F_obs came out at 7.6 L/kg. Also, the “psilocin-d10 exposure compared to psilocin exposure after administration of psilocybin” value in [12] (dogs, independent of formulation) was “twice as high”.

`CN(C)CCc1c[nH]c2cccc(OP(=O)(O)O)c12` [psilocybin]: in data set [8] (rat plasma, Group 3: psilocybin intravenous (bolus) 2.8 mg/kg, label = analyte, IAD = immediately after dosing), the Tmax result was “IAD”. Also, in data set [8] (rats, after IV dosing), the “brain concentrations compared to plasma” value is on record as “brain concentrations are low”.

Regarding `CN(C)CCc1c[nH]c2cccc(O)c12` [Compound I-7e, Citrate Salt of 3-(2-(dimethylamino)ethyl)-1H-indol-4-ol], the “hygroscopicity of isolated solid” value in data set [13] is recorded as “hygroscopic”.

Consider `CN(C)CCc1c[nH]c2cccc(O)c12` [Compound I-7b, Tartrate Salt of 3-(2-(dimethylamino)ethyl)-1H-indol-4-ol], for which, in [1], the “crystalline form by XRPD” value was “retained their initial crystalline form”.

In the case of `CN(C)CCc1c[nH]c2cccc(O)c12` [Compound I-7c, Hemi-Fumarate Salt of 3-(2-(dimethylamino)ethyl)-1H-indol-4-ol], the “crystalline form by XRPD” value in data set [1] is reported as “complex polymorphism”.
